From article PMC7719162, “Positioning of an unprecedented spiro[5.5]undeca ring system into kinase inhibitor space” (Scientific Reports, 2020)
Read-outs that look alike come from different tables or passages of the source.

Key:
[1] = molecular target: T1, ROCK2 (Homo sapiens, UniProt O75116); details: cited from earlier work
T1 construct: purchased Reaction Biology Corp

[2] = molecular target: T2, STK25/YSK1 (Homo sapiens, UniProt O00506); details: cited from earlier work
T2 construct: purchased Reaction Biology Corp

[3] = molecular target: T3, CDK1/cyclin B (Homo sapiens, UniProt P06493); details: cited from earlier work
T3 construct: purchased Reaction Biology Corp

[4] = molecular target: T4, ZIPK/DAPK3 (Homo sapiens, UniProt O43293); details: cited from earlier work
T4 construct: purchased Reaction Biology Corp

[5] = molecular target: T5, JNK1 (Homo sapiens, UniProt P45983); details: cited from earlier work
T5 construct: purchased Reaction Biology Corp

[6] = molecular target: T6, TRKA (Homo sapiens, UniProt P04629); details: cited from earlier work
T6 construct: purchased Reaction Biology Corp

[7] = molecular target: T7, TRKC (Homo sapiens, UniProt Q16288); details: cited from earlier work
T7 construct: purchased Reaction Biology Corp

[8] = molecular target: T8, TRKA-TFG (TRK-T3) (Homo sapiens, UniProt P04629+Q92734); assay: Kinase panel assay (radiolabelled); format: biochemical; details: 30 μM compound, ATP 10 μM, duplicates Data 1/Data 2
T8 construct: TFG (fusion partner); purchased Reaction Biology Corp

[9] = molecular target: GSK3β (Homo sapiens, UniProt P49841); assay: GSK3β radiolabelled kinase assay (% residual activity, IC50, ATP competition); format: biochemical
[10] = molecular target: T9, AMPK(A2/B2/G1) (Homo sapiens, UniProt O43741+P54619+P54646); assay: Kinase panel assay (radiolabelled); format: biochemical; details: 30 μM compound, ATP 10 μM; duplicates Data 1/Data 2; read-out: % Enzyme Activity (relative to DMSO controls)
T9 construct: purchased Reaction Biology Corp

[11] = molecular target: T10, AMPK(A2/B2/G1) (Homo sapiens, UniProt P54646); assay: Kinase panel assay (radiolabelled); format: biochemical; details: 30 μM compound, ATP 10 μM; duplicates Data 1/Data 2
T10 construct: purchased Reaction Biology Corp

[12] = molecular target: T11, TRKA (G595R) (Homo sapiens, UniProt P04629, G595R); assay: Kinase panel assay (radiolabelled); format: biochemical; details: 30 μM compound, ATP 10 μM, duplicates Data 1/Data 2
T11 construct: purchased Reaction Biology Corp

[13] = system: IL-1β; assay: Secreted IL-1β ELISA in LPS-induced BV-2 cells; format: cell-based, murine
Experimental: To evaluate the secreted level of Prostaglandin E2 (PGE2), Tumor necrosis factor (TNF-α), Interleukin (IL-6), Interleukin (IL-1β), BV2 cells were seeded in a 6 well plate at the density of 1.5 × 10^6 cells/well in DMEM and incubated for 24 h. Seeded cells sere pretreated and, activated with LPS for next 24 h. conditioned medium from treated cells were collected and stored at -80 degree for longer period of time. The amount of TNF-α, IL-1β, PGE2,and IL-6 were evaluated using the competitive enzyme immunoassay kit. PGE2 kit were obtained from (Cayman Chemical, Ann Arbor, MI, USA) and TNF-α, IL-1β, and IL-6 were measured using ELISA development kits (R&D Systems, Minneapolis, MN, USA). All the protocol was exactly followed as written in the manual.

[14] = molecular target: T12, PKN2/PRK2 (Homo sapiens, UniProt Q16513); assay: Kinase panel assay (radiolabelled); format: biochemical; details: ATP 10 μM
T12 construct: purchased Reaction Biology Corp

[15] = molecular target: T13, TRKC (G623R/L686M) (Homo sapiens, UniProt Q16288, G623R/L686M); assay: Kinase panel assay (radiolabelled); format: biochemical; details: 30 μM compound, ATP 10 μM, duplicates Data 1/Data 2
T13 construct: purchased Reaction Biology Corp

[16] = molecular target: T14, PI3Kg (p110g) (Homo sapiens, UniProt P48736); assay: Kinase panel assay (lipid kinase); format: biochemical; details: 30 μM compound, ATP 10 μM, duplicates Data 1/Data 2
T14 construct: purchased Reaction Biology Corp

[17] = molecular target: T15, AMPK(A1/B2/G1) (Homo sapiens, UniProt Q13131); assay: Kinase panel assay (radiolabelled); format: biochemical; details: 30 μM compound, ATP 10 μM; duplicates Data 1/Data 2
T15 construct: purchased Reaction Biology Corp

[18] = molecular target: T16, AMPK(A1/B2/G1) (Homo sapiens, UniProt O43741+P54619+Q13131); assay: Kinase panel assay (radiolabelled); format: biochemical; details: 30 μM compound, ATP 10 μM; duplicates Data 1/Data 2; read-out: % Enzyme Activity (relative to DMSO controls)
T16 construct: purchased Reaction Biology Corp

[19] = molecular target: T17, PI3K (p110a(H1047R)/p85a) (Homo sapiens, UniProt P42336, H1047R); assay: Kinase panel assay (lipid kinase); format: biochemical; details: 30 μM compound, ATP 10 μM, duplicates Data 1/Data 2
T17 construct: purchased Reaction Biology Corp

[20] = molecular target: T6, TRKA; assay: Kinase panel assay (radiolabelled); format: biochemical; details: ATP 10 μM
[21] = molecular target: T18, DAPK1 (Homo sapiens, UniProt P53355); assay: Kinase panel assay (radiolabelled); format: biochemical; details: ATP 10 μM
T18 construct: purchased Reaction Biology Corp

[22] = molecular target: T19, SPHK2 (Homo sapiens, UniProt Q9NRA0); assay: Kinase panel assay (lipid kinase); format: biochemical; details: 30 μM compound, ATP 10 μM, duplicates Data 1/Data 2
T19 construct: purchased Reaction Biology Corp

[23] = molecular target: T20, SPHK1 (Homo sapiens, UniProt Q9NYA1); assay: Kinase panel assay (lipid kinase); format: biochemical; details: 30 μM compound, ATP 10 μM, duplicates Data 1/Data 2
T20 construct: purchased Reaction Biology Corp

[24] = read-out: % Enzyme Activity (relative to DMSO controls)
[25] = 30 μM compound, duplicates Data 1/Data 2
[26] = 30 μM compound, duplicates Data 1/Data 2, read-out: % Enzyme Activity (relative to DMSO controls)
[27] = 30 μM, average ± SD, read-out: % Residual Activity at 30 μM

T12 sequence (Q16513 whole entry): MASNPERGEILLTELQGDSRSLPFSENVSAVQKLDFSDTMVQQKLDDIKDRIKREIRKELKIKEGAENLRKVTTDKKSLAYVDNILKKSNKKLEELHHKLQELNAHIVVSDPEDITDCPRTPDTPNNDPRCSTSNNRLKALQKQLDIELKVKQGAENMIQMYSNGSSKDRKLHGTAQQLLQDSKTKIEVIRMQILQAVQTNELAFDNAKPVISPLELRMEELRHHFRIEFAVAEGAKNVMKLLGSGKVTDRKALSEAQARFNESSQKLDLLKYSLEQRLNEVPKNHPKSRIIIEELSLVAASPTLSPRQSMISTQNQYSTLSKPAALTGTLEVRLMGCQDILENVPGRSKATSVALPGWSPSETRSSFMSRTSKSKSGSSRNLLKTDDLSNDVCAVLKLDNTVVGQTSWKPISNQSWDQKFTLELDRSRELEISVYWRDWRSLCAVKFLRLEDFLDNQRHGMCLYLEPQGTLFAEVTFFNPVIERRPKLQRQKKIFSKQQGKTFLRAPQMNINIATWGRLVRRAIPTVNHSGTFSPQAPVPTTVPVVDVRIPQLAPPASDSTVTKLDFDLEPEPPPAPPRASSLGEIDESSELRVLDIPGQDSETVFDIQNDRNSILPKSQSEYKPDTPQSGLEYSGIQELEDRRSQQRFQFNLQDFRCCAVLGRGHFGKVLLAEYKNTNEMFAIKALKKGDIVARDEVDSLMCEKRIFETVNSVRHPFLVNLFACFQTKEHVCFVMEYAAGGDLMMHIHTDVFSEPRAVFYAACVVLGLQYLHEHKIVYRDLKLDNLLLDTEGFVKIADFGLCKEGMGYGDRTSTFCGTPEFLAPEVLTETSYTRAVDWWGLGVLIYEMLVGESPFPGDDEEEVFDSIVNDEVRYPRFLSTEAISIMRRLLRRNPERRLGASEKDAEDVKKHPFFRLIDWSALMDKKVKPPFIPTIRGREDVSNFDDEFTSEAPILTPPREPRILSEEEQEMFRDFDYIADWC
T18 sequence (P53355 whole entry): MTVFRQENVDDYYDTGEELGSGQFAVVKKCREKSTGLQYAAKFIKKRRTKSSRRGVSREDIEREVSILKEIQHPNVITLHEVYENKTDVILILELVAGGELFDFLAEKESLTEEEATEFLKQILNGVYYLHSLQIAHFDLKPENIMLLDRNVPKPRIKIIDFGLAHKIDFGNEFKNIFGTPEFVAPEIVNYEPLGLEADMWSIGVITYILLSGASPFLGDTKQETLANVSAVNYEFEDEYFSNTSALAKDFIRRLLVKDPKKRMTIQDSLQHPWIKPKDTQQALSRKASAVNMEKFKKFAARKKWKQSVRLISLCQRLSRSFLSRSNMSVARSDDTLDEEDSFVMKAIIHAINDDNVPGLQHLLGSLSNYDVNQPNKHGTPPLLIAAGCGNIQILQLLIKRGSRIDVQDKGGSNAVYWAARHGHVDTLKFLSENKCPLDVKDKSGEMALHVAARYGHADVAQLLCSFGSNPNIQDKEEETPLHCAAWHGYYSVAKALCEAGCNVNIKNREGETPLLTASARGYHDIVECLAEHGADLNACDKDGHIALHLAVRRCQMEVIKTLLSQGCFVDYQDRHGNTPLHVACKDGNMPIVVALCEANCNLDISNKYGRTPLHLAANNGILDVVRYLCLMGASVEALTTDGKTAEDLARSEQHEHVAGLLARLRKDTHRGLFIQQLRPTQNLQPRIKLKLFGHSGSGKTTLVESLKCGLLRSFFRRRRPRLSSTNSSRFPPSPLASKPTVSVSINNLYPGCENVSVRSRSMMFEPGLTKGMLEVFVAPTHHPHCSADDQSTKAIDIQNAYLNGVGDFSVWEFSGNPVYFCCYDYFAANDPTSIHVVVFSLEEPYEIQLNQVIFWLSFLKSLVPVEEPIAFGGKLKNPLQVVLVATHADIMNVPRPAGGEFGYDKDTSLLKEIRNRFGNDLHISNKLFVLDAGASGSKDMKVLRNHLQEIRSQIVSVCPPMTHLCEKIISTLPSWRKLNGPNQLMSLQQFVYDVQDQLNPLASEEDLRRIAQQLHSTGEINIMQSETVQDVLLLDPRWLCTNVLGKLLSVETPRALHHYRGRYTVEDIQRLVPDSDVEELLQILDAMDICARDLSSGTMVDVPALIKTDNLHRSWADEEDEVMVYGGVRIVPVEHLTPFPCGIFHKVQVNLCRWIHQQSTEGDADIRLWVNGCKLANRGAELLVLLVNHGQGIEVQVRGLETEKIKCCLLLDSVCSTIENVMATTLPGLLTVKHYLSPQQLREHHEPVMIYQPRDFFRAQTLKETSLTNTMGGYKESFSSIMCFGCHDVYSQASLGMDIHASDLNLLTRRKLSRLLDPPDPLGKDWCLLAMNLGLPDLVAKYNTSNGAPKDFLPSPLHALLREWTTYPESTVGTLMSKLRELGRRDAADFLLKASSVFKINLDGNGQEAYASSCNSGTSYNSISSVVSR
T6 sequence (P04629 33-796): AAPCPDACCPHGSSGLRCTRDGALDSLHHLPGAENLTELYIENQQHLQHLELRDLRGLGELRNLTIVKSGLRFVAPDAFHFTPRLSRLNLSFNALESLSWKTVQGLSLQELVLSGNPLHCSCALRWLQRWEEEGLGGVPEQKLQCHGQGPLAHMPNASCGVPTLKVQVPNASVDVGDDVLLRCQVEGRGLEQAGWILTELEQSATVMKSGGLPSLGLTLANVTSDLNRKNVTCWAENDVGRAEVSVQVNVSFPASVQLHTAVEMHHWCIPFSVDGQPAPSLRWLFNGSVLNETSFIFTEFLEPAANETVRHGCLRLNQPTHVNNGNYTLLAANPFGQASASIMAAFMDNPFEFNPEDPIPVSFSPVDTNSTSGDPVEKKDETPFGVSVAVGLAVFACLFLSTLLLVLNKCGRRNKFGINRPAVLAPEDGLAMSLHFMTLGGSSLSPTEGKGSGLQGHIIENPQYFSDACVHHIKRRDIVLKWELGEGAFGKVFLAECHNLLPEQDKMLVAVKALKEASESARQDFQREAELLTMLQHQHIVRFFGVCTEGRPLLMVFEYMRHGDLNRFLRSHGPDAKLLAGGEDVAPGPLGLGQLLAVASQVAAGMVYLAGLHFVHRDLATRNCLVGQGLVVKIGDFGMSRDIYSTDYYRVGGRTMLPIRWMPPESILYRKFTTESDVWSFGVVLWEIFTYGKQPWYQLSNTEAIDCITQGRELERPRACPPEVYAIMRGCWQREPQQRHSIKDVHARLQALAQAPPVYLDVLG
T13 sequence (Q16288 32-839 G623R/L686M): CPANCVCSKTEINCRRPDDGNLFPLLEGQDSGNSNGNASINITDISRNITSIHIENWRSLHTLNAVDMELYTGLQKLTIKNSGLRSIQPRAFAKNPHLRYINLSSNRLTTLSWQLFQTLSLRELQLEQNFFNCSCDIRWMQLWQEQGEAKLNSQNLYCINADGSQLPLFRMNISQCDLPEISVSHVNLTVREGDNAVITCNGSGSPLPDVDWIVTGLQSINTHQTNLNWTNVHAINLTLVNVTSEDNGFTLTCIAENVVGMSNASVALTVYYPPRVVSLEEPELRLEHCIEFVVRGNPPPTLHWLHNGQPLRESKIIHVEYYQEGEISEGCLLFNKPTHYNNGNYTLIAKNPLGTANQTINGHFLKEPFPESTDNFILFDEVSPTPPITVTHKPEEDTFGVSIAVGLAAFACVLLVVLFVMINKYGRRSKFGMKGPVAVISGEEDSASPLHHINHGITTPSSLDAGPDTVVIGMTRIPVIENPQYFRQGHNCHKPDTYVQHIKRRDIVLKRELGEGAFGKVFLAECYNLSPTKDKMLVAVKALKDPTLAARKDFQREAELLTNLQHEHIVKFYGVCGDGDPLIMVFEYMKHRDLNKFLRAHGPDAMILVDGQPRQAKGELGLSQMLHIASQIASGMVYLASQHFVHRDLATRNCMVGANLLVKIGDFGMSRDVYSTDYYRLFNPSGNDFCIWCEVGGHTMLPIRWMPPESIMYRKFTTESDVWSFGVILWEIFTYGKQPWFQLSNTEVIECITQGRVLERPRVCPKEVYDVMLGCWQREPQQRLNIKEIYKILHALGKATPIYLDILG
T19 sequence (Q9NRA0 whole entry): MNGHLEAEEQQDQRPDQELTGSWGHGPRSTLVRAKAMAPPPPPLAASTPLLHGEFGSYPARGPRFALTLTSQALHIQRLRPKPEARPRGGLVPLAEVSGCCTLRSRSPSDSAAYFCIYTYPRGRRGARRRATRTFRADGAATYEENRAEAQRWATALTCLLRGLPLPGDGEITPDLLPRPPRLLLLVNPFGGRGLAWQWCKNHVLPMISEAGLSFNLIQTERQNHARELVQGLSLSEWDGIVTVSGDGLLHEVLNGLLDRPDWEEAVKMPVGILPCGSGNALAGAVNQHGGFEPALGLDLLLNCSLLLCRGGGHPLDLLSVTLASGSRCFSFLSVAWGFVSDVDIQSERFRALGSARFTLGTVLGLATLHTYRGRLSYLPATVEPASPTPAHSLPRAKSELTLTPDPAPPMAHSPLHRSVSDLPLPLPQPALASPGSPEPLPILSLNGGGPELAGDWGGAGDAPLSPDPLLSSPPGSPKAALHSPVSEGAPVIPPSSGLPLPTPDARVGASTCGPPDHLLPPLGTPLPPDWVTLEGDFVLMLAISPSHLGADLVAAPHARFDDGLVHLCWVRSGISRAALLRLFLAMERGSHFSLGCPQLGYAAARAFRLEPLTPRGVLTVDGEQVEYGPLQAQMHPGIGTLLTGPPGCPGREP
GSK3β, sequence (P49841 whole entry): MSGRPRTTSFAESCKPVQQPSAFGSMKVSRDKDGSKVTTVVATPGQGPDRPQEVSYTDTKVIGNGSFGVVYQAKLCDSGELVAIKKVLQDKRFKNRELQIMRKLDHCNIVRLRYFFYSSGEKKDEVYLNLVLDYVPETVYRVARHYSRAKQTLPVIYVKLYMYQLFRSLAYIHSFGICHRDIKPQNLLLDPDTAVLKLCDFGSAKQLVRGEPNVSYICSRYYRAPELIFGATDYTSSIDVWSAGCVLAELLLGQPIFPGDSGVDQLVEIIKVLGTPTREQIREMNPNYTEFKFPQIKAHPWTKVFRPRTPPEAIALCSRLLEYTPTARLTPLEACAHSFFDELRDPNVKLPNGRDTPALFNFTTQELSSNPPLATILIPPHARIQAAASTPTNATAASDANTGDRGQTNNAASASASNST

For `O=C1C=CC2(C=C1)OCC(Cc1cc(C(F)(F)F)cc(C(F)(F)F)c1)C(=O)N2c1ccccc1` (racemic) [1c], the “% Residual Activity at 30 μM” value [1] is given as 103.9 ± 2.4%, the “% Residual Activity at 30 μM” value [2] is given as 66.9 ± 0.1% and the “% Residual Activity at 30 μM” value [3] is given as 46.0 ± 0.8%. The “% Residual Activity at 30 μM” value [4] was 101.8 ± 0.8%, the “% Residual Activity at 30 μM” value [5] was 35.8 ± 0.3% and the “% Residual Activity at 30 μM” value [6] was 98.3 ± 0.1%. The “% Residual Activity at 30 μM” value [7] was 97.9 ± 0.2%.
With `O=C1C=CC2(C=C1)OCC(Cc1cn(-c3cccc(Cl)c3)nn1)C(=O)N2c1ccccc1` (stereo not shown) [2d, 3-((1-(3-Chlorophenyl)-1H-1,2,3-triazol-4-yl)methyl)-5-phenyl-1-oxa-5-azaspiro[5.5]undeca-7,10-diene-4,9-dione] the “% Enzyme Activity (relative to DMSO controls)” value [8] was 102.82%, the remaining activity at 30 µM [8, 24] was 109% and the IC50 ([9]; ATP 1 μM (Table 2), read-out: IC50 on GSK3β (converted)) was 7.04 µM. The remaining activity at 10 µM ([9]; at 10 μM compound) was 51.1 ± 6.1%, the remaining activity at 30 µM [10] was 94% and the “% Enzyme Activity (relative to DMSO controls)” value [11] was 89.86%. For the same compound, the “% Enzyme Activity (relative to DMSO controls)” value [12] was 99.08%, the remaining activity at 30 µM [12, 24] was 103% and the “IL-1β level” value [13] was “concentration-dependent manner”. For the same compound, the “% Enzyme Activity (relative to DMSO controls)” value [14, 25] was 97.21%, the remaining activity at 30 µM [14, 26] was 102% and the remaining activity at 30 µM [14, 27] was 99.5 ± 3.3%. The “% Enzyme Activity (relative to DMSO controls)” value [15] was 95.31%, the remaining activity at 30 µM [15, 24] was 96% and the “% Enzyme Activity (relative to DMSO controls)” value [16] was 85.15%. For the same compound, the remaining activity at 30 µM [16, 24] was 87.4%, the “% Enzyme Activity (relative to DMSO controls)” value [17] was 107.43% and the remaining activity at 30 µM [18] was 110%. For the same compound, the “% Enzyme Activity (relative to DMSO controls)” value [19] was 131.08%, the remaining activity at 30 µM [19, 24] was 132% and the “% Enzyme Activity (relative to DMSO controls)” value [20, 25] was 115.47%. The remaining activity at 30 µM [20, 26] was 119%, the remaining activity at 30 µM [20, 27] was 117 ± 2.6% and the “% Enzyme Activity (relative to DMSO controls)” value [21, 25] was 73.41%. The remaining activity at 30 µM [21, 26] was 75.8%, the remaining activity at 30 µM [21, 27] was 74.6 ± 1.7% and the “% Enzyme Activity (relative to DMSO controls)” value [22] was 90.95%. For the same compound, the remaining activity at 30 µM [22, 24] was 91.5%, the “% Enzyme Activity (relative to DMSO controls)” value [23] was 77.68% and the remaining activity at 30 µM [23, 24] was 80.5%.
